From patent publication US20040082605A1, “Use” (priority 2001, published 2004)

System: gastric (corpus) ulcers induced by indomethacin
Experiment: Indomethacin induced gastric ulcer in rats, stomach examined macroscopically
Format: in vivo
Settings: male rats; for Median number of gastric (corpus) ulcers induced by indomethacin: Ulcer furrows / Median number of gastric (corpus) ulcers induced by indomethacin: Pinhead ulcers: stomach removed 5 h after indomethacin; for Median number of gastric (corpus) ulcers induced by indomethacin: Ulcer furrows: furrows >3 mm; for Median number of gastric (corpus) ulcers induced by indomethacin: Pinhead ulcers: pinhead = diameter 3 mm or less; for Effect against gastric ulcers induced by indomethacin: oral dosing 1 h before indomethacin 20 mg/kg orally, result in words
Method: Groups of […] male rats were given oral doses of vehicle, 2,3-dimethyl-8-(2-ethyl-6-methylbenzylamino)-imidazo[1,2-a]pyridine-6-carboxamide(0.3, 1, 3 and 10 μmol/kg) or ranitidine (10 μmol/kg). Indomethacin 20 mg/kg, orally) was given 1 h after dosing. Stomach was removed 5 h after indomethacin and examined macroscopically Indomethacin induced ulcers in the corpus only, rumen and anthrum were unaffected. Ulcers in the corpus were classified as pinhead (diameter 3 mm or less) or furrows (>3 mm).

[1] = oral dose 0.3 μmol/kg 1 h before indomethacin 20 mg/kg orally
[2] = oral dose 1 μmol/kg 1 h before indomethacin 20 mg/kg orally
[3] = oral dose 3 μmol/kg 1 h before indomethacin 20 mg/kg orally
[4] = oral dose 10 μmol/kg 1 h before indomethacin 20 mg/kg orally
[5] = oral doses 0.3, 1, 3 and 10 μmol/kg

CCc1cccc(C)c1CNc1cc(C(N)=O)cn2c(C)c(C)nc12 [2,3-dimethyl-8-(2-ethyl-6-methylbenzylamino)-imidazo[1,2-a]pyridine-6-carboxamide]
Median number of gastric (corpus) ulcers induced by indomethacin: Ulcer furrows [1]: 8 | Median number of gastric (corpus) ulcers induced by indomethacin: Pinhead ulcers [1]: 5 | Median number of gastric (corpus) ulcers induced by indomethacin: Ulcer furrows [2]: 9 | Median number of gastric (corpus) ulcers induced by indomethacin: Pinhead ulcers [2]: 5 | Median number of gastric (corpus) ulcers induced by indomethacin: Ulcer furrows [3]: 1 | Median number of gastric (corpus) ulcers induced by indomethacin: Pinhead ulcers [3]: 2 | Median number of gastric (corpus) ulcers induced by indomethacin: Ulcer furrows [4]: 0 | Median number of gastric (corpus) ulcers induced by indomethacin: Pinhead ulcers [4]: 0 | Dose at which the decrease in pinhead ulcers and ulcer furrows was maximal [5]: 10 µmol/kg | Dose from which the decrease in pinhead ulcers and ulcer furrows was statistically significant [5]: 3 µmol/kg | Effect against gastric ulcers induced by indomethacin: protective effect

CNC(=C[N+](=O)[O-])NCCSCc1ccc(CN(C)C)o1 [Ranitidine, ranitidine, reference compound]
Median number of gastric (corpus) ulcers induced by indomethacin: Ulcer furrows [4]: 11 | Median number of gastric (corpus) ulcers induced by indomethacin: Pinhead ulcers [4]: 7 | Effect against gastric ulcers induced by indomethacin: no effect
